# According to patent US11007524B2, “Automatic microfluidic system for rapid personalized drug screening and testing method for personalized antibiotic susceptibility” (National Tsing Hua University, priority 2019, dated 2021):
# Tests used:
# [1] = test system: vancomycin-intermediate Staphylococcus aureus (VISA); assay: Minimum inhibitory concentration by automatic microfluidic system (Example 9), resazurin colour change; type: cell-based
# Method: A determination of minimum inhibitory concentration is performed by using the microfluidic chip 100 of FIG. 1 in cooperated with the testing method 200 for personalized antibiotic susceptibility of FIG. 5. The details of the testing method 200 has been described as mentioned above so that the same process will not be further illustrated herein.
# In experimental, the microfluidic chip 100 is divided into a reaction zone 1001 and a reaction zone 1002 along line 10-10 by using the fluid storage chamber 111a and the fluid storage chamber 111b as a center. The reaction zone 1001 is utilized for determining the minimum inhibitory concentration of vancomycin for the vancomycin-intermediate Staphylococcus aureus, and the reaction zone 1002 is utilized for determining the minimum inhibitory concentration of gentamicin for the vancomycin-intermediate Staphylococcus aureus. After 4 hours of incubation of the reaction solutions including the resazurin, with different concentrations, the color of the reaction solution will be gradually changed to red when the vancomycin-intermediate Staphylococcus aureus grows and can be observed directly through the microfluidic chip 100.
# In such the example, the reference numerals of the reaction chambers 131 of the microfluidic chip 100 are reassigned to the reaction chambers 131a to 131l. […]
# [2] = test system: vancomycin-intermediate Staphylococcus aureus (VISA); assay: Minimum inhibitory concentration by broth microdilution (Comparative Example 1); type: cell-based; conditions: same conditions
# Description: Furthermore, the present testing further includes Comparative Example 1.
Compound,"MIC ([1]; Staphylococcus aureus, VISA, 4 h, read-out: minimum inhibitory concentration, Example 9) [µg/mL]",MIC ([2]; Staphylococcus aureus) [µg/mL],"minimum inhibitory concentration, Example 9 ([1]; microfluidic chip, VISA 1500 CFU, 3 μL reaction solution, 4 hours of incubation, resazurin) [µg/mL]","minimum inhibitory concentration, Comparative Example 1 [2] [µg/mL]"
"CN[C@H](CC(C)C)C(=O)N[C@H]1C(=O)N[C@@H](CC(N)=O)C(=O)N[C@H]2C(=O)N[C@H]3C(=O)N[C@H](C(=O)N[C@H](C(=O)O)c4cc(O)cc(O)c4-c4cc3ccc4O)[C@H](O)c3ccc(c(Cl)c3)Oc3cc2cc(c3O[C@@H]2O[C@H](CO)[C@@H](O)[C@H](O)[C@H]2O[C@H]2C[C@](C)(N)[C@H](O)[C@H](C)O2)Oc2ccc(cc2Cl)[C@H]1O [Vancomycin, vancomycin]",2.16,2,–,–
gentamicin,–,–,>7.52,>8
